Earlier results, collected in patent publication US20170296470A1, “TWO SPEED MONOLOTHIC SYSTEM FOR CONTROLLED RELEASE OF DRUGS” (Matripharm Inc., priority 2011, published 2017).

Details: for numbers needed to harm: one out of N patients likely to suffer a first-time heart attack: patients in the age group of 65 and over; for risk of heart attack increased: patients prescribed the NSAID vs those who had not taken these drugs in the previous three years

Row | Structure (SMILES) | numbers needed to harm: one out of N patients likely to suffer a first-time heart attack | risk of heart attack increased
1 | O=C(O)Cc1ccccc1Nc1c(Cl)cccc1Cl [diclofenac] | 521 patients | 55%
2 | CC(C)Cc1ccc(C(C)C(=O)O)cc1 (centres unmarked) [ibuprofen] | 1005 patients | 24%
3 | CS(=O)(=O)c1ccc(C2=C(c3ccccc3)C(=O)OC2)cc1 [rofecoxib] | 695 patients | –
